Test [1] relates to MRSP. Description: Checkerboard synergy of peptide 8 and oxacillin. Type of test: cell-based, Staphylococcus pseudintermedius. The protocol:
The interaction between peptide 8 and oxacillin against MRSP was evaluated by the checkerboard method. Briefly, twofold serial dilutions of oxacillin distributed in horizontal rows of 96-well microtiter plate were cross-diluted vertically by twofold serial dilutions of peptide 8 to at least double the MIC. The peptide 8 tested concentration ranging from 0.19 to 12.5 μM and oxacillin from 1.25 to 25 μM (0.5 to 10 μg/mL). Microtiter plates were inoculated with bacteria at an approximate concentration of 10^5 CFU/mL and incubated at 37 °C for 24 h. […] To evaluate the effect of the combination treatment, the fractional inhibitory concentration (FIC) index for each combination was calculated as follows: FIC index = FIC of peptide 8 + FIC of oxacillin, where FIC of peptide 8 (or oxacillin) was defined as the ratio of MIC of peptide 8 (or oxacillin) in combination and MIC of peptide 8 (or oxacillin) alone. The FIC index values were interpreted as follows: ≤0.5, synergistic; >0.5 to ≤1.0, additive; >1.0 to ≤2.0, indifferent; and >2.0, antagonistic effects.

Test [2] deals with methicillin-resistant S. pseudintermedius (MRSP). Description: microbe, parasite or virus in culture. Format: cell-based, Staphylococcus pseudintermedius. The settings on record: Staphylococcus pseudintermedius, 24 h. The protocol: (§1) MIC of all compounds was determined in Sabouraud Dextrose broth with 1% tween 80 (SB) medium, for M. pachydermatis, and Mueller–Hinton broth (MH), for S. pseudintermedius, by the broth microdilution assay (BMD) in 96-well microtiter plates, as previously reported. Specifically, SB containing 1% Tween 80 was used instead of RPMI 1640 medium. All compounds were dissolved in ethanol and ketoconazole in dimethyl sulfoxide (DMSO). The solutions were serially diluted in SB and MH two-fold from 0.19 to 50 μM. M. pachydermatis suspension was prepared from 3-day-old colonies grown on Sabouraud agar at 30 °C. The final concentration of the yeast inoculum suspensions was equivalent to 1–3 × 10^3 CFU/mL. Bacterial suspensions were diluted to yield an optical density (OD) around 0.5 at 595 nm and further diluted to a final concentration of 1 × 10^6 CFU/mL. The compounds were added to the microbial suspension in each well yielding a final cell concentration of 5 × 10^5 CFU/mL. Positive controls included oxacillin 5 μM (2 μg/mL) and vancomycin 1.4 μM (2 μg/mL) for S. pseudintermedius or ketoconazole 0.2 μM (0.125 μg/mL) for M. pachydermatis. Negative control wells were set to contain bacteria in MH or yeasts in SB plus the amount of ethanol used to dilute each compound. Medium turbidity was measured by a microtiter plate reader (Tecan, Milan, Italy) at 595 nm after 24 h for S. pseudintermedius and 48 h for M. pachydermatis. Absorbance was proportional to microbial growth. The MIC was defined as the lowest concentration of drug that caused a prominent decrease (≥90% inhibition) in visible growth relative to that of the growth control.

For test [3], the system named is methicillin-susceptible S. pseudintermedius (MSSP). Nature of the test: microbe, parasite or virus in culture. To be noted: Staphylococcus pseudintermedius, 24 h. Format: cell-based, Staphylococcus pseudintermedius. The protocol: as §1
The test system of test [4] is M. pachydermatis. To be noted: for MIC Values: broth microdilution, Sabouraud dextrose broth + 1% Tween 80, 48 h, ≥90% inhibition of growth, OD 595 nm; for MMC/MIC Ratio: M. pachydermatis; for MMC Values (minimum mycocidal concentration): ≥3 log10 reduction in colony count from starting inoculum, agar 72 h at 30 °C. The protocol:
as §1
(In broth dilution the organism is exposed to a series of concentrations in liquid medium.)

In brackets after ≈: the same amount, converted by molar mass. Read-outs that look alike come from different tables or passages of the source. Where a SMILES comes first, the peptide text is derived from it. [ ]: non-standard residue; d: D form. Hyp = O=C(O)[C@@H]1C[C@@H](O)CN1; dHyp = O=C(O)[C@H]1C[C@H](O)CN1; Aic = NC1(C(=O)O)Cc2ccccc2C1; dNle = CCCC[C@@H](N)C(=O)O Bounds are passed on as bounds.

On to `Cc1onc(-c2ccccc2)c1C(=O)N[C@@H]1C(=O)N2[C@@H]1SC(C)(C)[C@@H]2C(=O)O` [Oxacillin, oxacillin, reference compound], for which, in test [1] (MRSP, oxacillin alone versus oxacillin in combination), the “Oxacillin MIC value reduction in combination with peptide 8” value was “about eight”. The “Concentration of oxacillin in the most synergistic combination” value in test [1] (with 1.56 μM peptide 8, MRSP, 1/8 MIC) was determined as 3.1 µM. For the same compound, the MIC is 25 µM (≈ 10 µg/mL) in test [2] (MRSP, Mueller-Hinton broth, ≥90% inhibition, three independent experiments in triplicate, read-out: MIC) and less than 5 µM in test [3] (MSSP, Mueller-Hinton broth, ≥90% inhibition, three independent experiments in triplicate, read-out: MIC).
With `CC[C@H](C)[C@H](NC(=O)[C@H](CCCNC(=N)N)NC(=O)CNC(=O)[C@@H](CC(C)C)NC(=O)[C@H](Cc1ccccc1)NC(=O)[C@H](CCCCN)NC(=O)[C@H](CO)NC(=O)[C@H](Cc1ccccc1)NC(=O)[C@H](Cc1c[nH]c2ccccc12)NC(=O)[C@@H]1CCCN1C(=O)[C@@H](NC(=O)[C@@H](N)Cc1ccccc1)C(C)C)C(=O)N[C@@H](CC(C)C)C(N)=O` [Peptide 1] (H-FVPWFSKF[dL]GRIL-NH2), in test [4], the “MIC Values” stood at 25 µM.
As for `CC[C@H](C)[C@H](NC(=O)[C@H](CCCNC(=N)N)NC(=O)[C@@H]1CCCN1C(=O)[C@@H](CC(C)C)NC(=O)[C@H](Cc1ccccc1)NC(=O)[C@H](CCCCN)NC(=O)[C@H](CO)NC(=O)[C@H](Cc1ccccc1)NC(=O)[C@H](Cc1c[nH]c2ccccc12)NC(=O)[C@@H]1CCCN1C(=O)[C@@H](NC(=O)[C@@H](N)Cc1ccccc1)C(C)C)C(=O)N[C@@H](CC(C)C)C(N)=O` [Peptide 2] (H-FVPWFSKF[dL]PRIL-NH2), in test [4], the “MMC/MIC Ratio” value is 4, the “MIC Values” was 25 µM and the “MMC Values (minimum mycocidal concentration)” value (“MMC Values” below) is 100 µM.
On the same counts, the results for `CC[C@H](C)[C@H](NC(=O)[C@H](CCCNC(=N)N)NC(=O)[C@H]1CCCN1C(=O)[C@@H](CC(C)C)NC(=O)[C@H](Cc1ccccc1)NC(=O)[C@H](CCCCN)NC(=O)[C@H](CO)NC(=O)[C@H](Cc1ccccc1)NC(=O)[C@H](Cc1c[nH]c2ccccc12)NC(=O)[C@@H]1CCCN1C(=O)[C@@H](NC(=O)[C@@H](N)Cc1ccccc1)C(C)C)C(=O)N[C@@H](CC(C)C)C(N)=O` [Peptide 3] (H-FVPWFSKF[dL][dP]RIL-NH2) are 4, 25 µM and 100 µM.
The matching figures for `CC[C@H](C)[C@H](NC(=O)[C@H](CCCNC(=N)N)NC(=O)[C@@H]1C[C@@H](O)CN1C(=O)[C@@H](CC(C)C)NC(=O)[C@H](Cc1ccccc1)NC(=O)[C@H](CCCCN)NC(=O)[C@H](CO)NC(=O)[C@H](Cc1ccccc1)NC(=O)[C@H](Cc1c[nH]c2ccccc12)NC(=O)[C@@H]1CCCN1C(=O)[C@@H](NC(=O)[C@@H](N)Cc1ccccc1)C(C)C)C(=O)N[C@@H](CC(C)C)C(N)=O` [Peptide 4] (H-FVPWFSKF[dL][Hyp]RIL-NH2): 4, 25 µM and 100 µM.
As for `CC[C@H](C)[C@H](NC(=O)[C@H](CCCNC(=N)N)NC(=O)[C@H]1C[C@H](O)CN1C(=O)[C@@H](CC(C)C)NC(=O)[C@H](Cc1ccccc1)NC(=O)[C@H](CCCCN)NC(=O)[C@H](CO)NC(=O)[C@H](Cc1ccccc1)NC(=O)[C@H](Cc1c[nH]c2ccccc12)NC(=O)[C@@H]1CCCN1C(=O)[C@@H](NC(=O)[C@@H](N)Cc1ccccc1)C(C)C)C(=O)N[C@@H](CC(C)C)C(N)=O` [Peptide 5] (H-FVPWFSKF[dL][dHyp]RIL-NH2), in test [4], the “MMC/MIC Ratio” value is reported as 4 and the “MMC Values” value turned out to be 100 µM.
Regarding `CCCC[C@@H](NC(=O)[C@@H](CC(C)C)NC(=O)[C@H](Cc1ccccc1)NC(=O)[C@H](CCCCN)NC(=O)[C@H](CO)NC(=O)[C@H](Cc1ccccc1)NC(=O)[C@H](Cc1c[nH]c2ccccc12)NC(=O)[C@@H]1CCCN1C(=O)[C@@H](NC(=O)[C@@H](N)Cc1ccccc1)C(C)C)C(=O)N[C@@H](CCCNC(=N)N)C(=O)N[C@H](C(=O)N[C@@H](CC(C)C)C(N)=O)[C@@H](C)CC` [Peptide 6] (H-FVPWFSKF[dL][dNle]RIL-NH2; N-terminus assumed), in test [4], the “MMC/MIC Ratio” value was determined as 4, the “MIC Values” came to 25 µM and the “MMC Values” value was determined as 100 µM.
The matching figures for `CC[C@H](C)[C@H](NC(=O)[C@H](CCCNC(=N)N)NC(=O)[C@H](CCCCN)NC(=O)[C@@H](CC(C)C)NC(=O)[C@H](Cc1ccccc1)NC(=O)[C@H](CCCCN)NC(=O)[C@H](CO)NC(=O)[C@H](Cc1ccccc1)NC(=O)[C@H](Cc1c[nH]c2ccccc12)NC(=O)[C@@H]1CCCN1C(=O)[C@@H](NC(=O)[C@@H](N)Cc1ccccc1)C(C)C)C(=O)N[C@@H](CC(C)C)C(N)=O` [Peptide 7] (H-FVPWFSKF[dL]KRIL-NH2; N-terminus assumed): 2, 12.5 µM and 25 µM.
Consider `CC[C@H](C)[C@H](NC(=O)[C@H](CCCNC(=N)N)NC(=O)[C@H](Cc1c[nH]c2ccccc12)NC(=O)[C@@H](CC(C)C)NC(=O)[C@H](Cc1ccccc1)NC(=O)[C@H](CCCCN)NC(=O)[C@H](CO)NC(=O)[C@H](Cc1ccccc1)NC(=O)[C@H](Cc1c[nH]c2ccccc12)NC(=O)[C@@H]1CCCN1C(=O)[C@@H](NC(=O)[C@@H](N)Cc1ccccc1)C(C)C)C(=O)N[C@@H](CC(C)C)C(N)=O` [Peptide 9] (H-FVPWFSKF[dL]WRIL-NH2), for which, in test [4], the “MMC/MIC Ratio” value was 4, the “MIC Values” is 25 µM and the “MMC Values” value is 100 µM.
`CC[C@H](C)[C@H](NC(=O)[C@H](CCCNC(=N)N)NC(=O)[C@@H](Cc1c[nH]c2ccccc12)NC(=O)[C@@H](CC(C)C)NC(=O)[C@H](Cc1ccccc1)NC(=O)[C@H](CCCCN)NC(=O)[C@H](CO)NC(=O)[C@H](Cc1ccccc1)NC(=O)[C@H](Cc1c[nH]c2ccccc12)NC(=O)[C@@H]1CCCN1C(=O)[C@@H](NC(=O)[C@@H](N)Cc1ccccc1)C(C)C)C(=O)N[C@@H](CC(C)C)C(N)=O` [Peptide 10] (H-FVPWFSKF[dL][dW]RIL-NH2): in test [4], the “MMC/MIC Ratio” value stood at 2, the “MIC Values” was 12.5 µM and the “MMC Values” value came out at 25 µM.
The matching figures for `CC[C@H](C)[C@H](NC(=O)[C@H](CCCNC(=N)N)NC(=O)C1(NC(=O)[C@@H](CC(C)C)NC(=O)[C@H](Cc2ccccc2)NC(=O)[C@H](CCCCN)NC(=O)[C@H](CO)NC(=O)[C@H](Cc2ccccc2)NC(=O)[C@H](Cc2c[nH]c3ccccc23)NC(=O)[C@@H]2CCCN2C(=O)[C@@H](NC(=O)[C@@H](N)Cc2ccccc2)C(C)C)Cc2ccccc2C1)C(=O)N[C@@H](CC(C)C)C(N)=O` [Peptide 11] (H-FVPWFSKF[dL][Aic]RIL-NH2): 4, 25 µM and 100 µM.
Turning to `CN[C@H](CC(C)C)C(=O)N[C@H]1C(=O)N[C@@H](CC(N)=O)C(=O)N[C@H]2C(=O)N[C@H]3C(=O)N[C@H](C(=O)N[C@H](C(=O)O)c4cc(O)cc(O)c4-c4cc3ccc4O)[C@H](O)c3ccc(c(Cl)c3)Oc3cc2cc(c3O[C@@H]2O[C@H](CO)[C@@H](O)[C@H](O)[C@H]2O[C@H]2C[C@](C)(N)[C@H](O)[C@H](C)O2)Oc2ccc(cc2Cl)[C@H]1O` [Vancomycin, vancomycin, reference compound], the MIC in test [2] and in test [3] was less than 1.4 µM in each case.
